Structures can show the parent of a compound that is named as a salt.
Experiments:
Abca4−/− mice = experiment: Bisretinoid accumulation in eyes of Abca4−/− mice; format: in vivo, mouse; conditions: Abca4−/− mice starting at 17 weeks old, 25 mg/kg for 12 weeks
Description: (§1) Abca4−/− mice have A2E levels in the ˜15-19 pmoles/eye range at 17 weeks old. Mice, starting at 17 weeks old, were treated with 25 mg/kg of Compound 81 for 12 weeks.

serum RBP4 = serum RBP4 (Mus musculus (Mouse), UniProt Q00724); experiment: Serum RBP4 levels in Abca4−/− mice; format: in vivo; conditions: 25 mg/kg for 12 weeks
Description: as §1

RBP4-TTR interaction = conditions: cited from earlier work
serum RBP4 and retinol = conditions: in vivo; cited from earlier work

SMILES	bisretinoid accumulation in Abca4−/− mouse model (Abca4−/− mice; present-tense example)	serum RBP4 reduction in treated mice (serum RBP4; present-tense example)	also measured
O=C(c1n[nH]c2c1CCNC2)N1CCC(c2cccc(F)c2Cl)CC1 [Compound 40, (4-(2-Chloro-3-fluorophenyl)piperidin-1-yl) (4,5,6,7-tetrahydro-1H-pyrazolo[3,4-c]pyridin-3-yl)methanone Hydrochloride]	inhibit bisretinoid accumulation	significant serum RBP4 reduction	
O=C(c1n[nH]c2c1CNCC2)N1CCC(c2cccc(F)c2Cl)CC1 [Compound 42, (4-(2-Chloro-3-fluorophenyl)piperidin-1-yl)(4,5,6,7-tetrahydro-1H-pyrazolo[4,3-c]pyridin-3-yl)methanone Hydrochloride]	inhibit bisretinoid accumulation	significant serum RBP4 reduction	
O=C(c1n[nH]c2c1CNCC2)N1CCC(c2ccc(F)c(F)c2C(F)(F)F)CC1 [Compound 36, (4-(3,4-Difluoro-2-(trifluoromethyl)phenyl)piperidin-1-yl)(4,5,6,7-tetrahydro-1H-pyrazolo[4,3-c]pyridin-3-yl)methanone Trifluoroacetic Acid Salt]	inhibit bisretinoid accumulation	significant serum RBP4 reduction	
O=C(c1n[nH]c2c1CNC2)N1CCC(c2ccc(F)c(F)c2C(F)(F)F)CC1 [Compound 38, (4-(3,4-Difluoro-2-(trifluoromethyl)phenyl)piperidin-1-yl)(1,4,5,6-tetrahydropyrrolo[3,4-c]pyrazol-3-yl)methanone Hydrochloride]	inhibit bisretinoid accumulation	significant serum RBP4 reduction	
O=C(c1n[nH]c2c1CCNC2)N1CCC(c2cccc(F)c2C(F)(F)F)CC1 [Compound 30, (4-(3-Fluoro-2-(trifluoromethyl)phenyl)piperidin-1-yl) (4,5,6,7-tetrahydro-1H-pyrazolo[3,4-c]pyridin-3-yl)methanone Hydrochloride]	inhibit bisretinoid accumulation	significant serum RBP4 reduction	
O=C(c1n[nH]c2c1CCNC2)N1CCC(c2ccc(F)c(F)c2C(F)(F)F)CC1 [Compound 34]	inhibit bisretinoid accumulation	significant serum RBP4 reduction	
CC1=C(/C=C/C(C)=C/C=C/C(C)=C/C(=O)Nc2ccc(O)cc2)C(C)(C)CCC1 [fenretinide, N-(4-hydroxy-phenyl)retinamide]			disruption of RBP4-TTR interaction (RBP4-TTR interaction): disrupt the RBP4-TTR interaction; ocular all-trans retinol uptake and visual cycle (serum RBP4 and retinol): inhibit ocular all-trans retinol uptake and slow down the visual cycle
CC(=O)N1CCc2c(C(=O)N3CCC(c4ccc(F)c(F)c4C(F)(F)F)CC3)n[nH]c2C1 [Compound 81, 1-(3-(4-(3,4-Difluoro-2-(trifluoromethyl)phenyl)piperidine-1-carbonyl)-4,5-dihydro-1H-pyrazolo[3,4-c]pyridin-6 (7H)-yl)ethanone]			bisretinoid accumulation in Abca4−/− mouse model (Abca4−/− mice): inhibited bisretinoid accumulation; serum RBP4 reduction in treated mice (serum RBP4): significant serum RBP4 reduction
